Data: patent publication US5219741A, “Method of making L-proline using an N-acyl-L-protine acylase” (priority 1990, dated 1993)
Entries after “also recorded” stand apart in the source; their conditions may differ.

Key:
[1] = test system: Comamonas testosteroni DSM 5416; assay: Growth of the strain in culture medium (OD600); type: cell-based
Protocol: Strains which appeared uniform according to the colony morphology and the microscopic image were then cultivated in 100 ml liquid medium (500 ml Erlenmeyer flask with top and 4 lateral baffles) at 30° C. on a rotary agitator machine at 200 rpms. The culture medium had the following composition: […]
(§1) The carbon source of the culture medium with a concentration of 4 g/l was varied and the influence on growth and acylase formation determined.
(§2) The concentration of N-acetyl-L-proline was varied in a range of 1 g/l-5 g/l in steps of 1 g/l in the culture medium as described in Example 1.
(§3) The concentration of (NH4)2 SO4 was varied in a range of 1 g/l-5 g/l in steps of 1 g/l in the culture medium as described in Example 1.
(§4) The concentration of yeast extract was varied in a range of 1 g/l-5 g/l in steps of 1 g/l in the culture medium as described in Example 1.
(§5) The N-acetyl-L-proline concentration was reduced to 0.2 to 1.0 g/l in the culture medium as described in Example 1 and 4 g/l Na acetate were additionally added.
(§6) The method described above under f) was followed. However, the inductor, N-acetyl-L-proline, was not added to the nutrient medium until the late exponential growth phase after an incubation time of 12 hours.
(§7) The method described above under f) was followed. In addition to N-acetyl-L-proline, various N-acetyl- and N-chloroacetyl amino acids were added to the nutrient medium in a concentration of 1 g/l.

[2] = test system: N-acyl-L-proline acylase formation in Comamonas testosteroni DSM 5416; assay: Acylase formation: specific activity of N-acyl-L-proline acylase in crude extract; type: cell-based
Protocol: After 24 to 48 hours, the cell-containing nutrient medium was centrifuged (15 min., 4,500 g in a cooling centrifuge), the cells were washed twice with 0.9% (w/v) NaCl solution and resuspended in 10 ml 0.1M tris-HCl buffer, pH 7.0.
The microorganisms of this suspension were macerated by ultrasound treatment (Sonifier-Cell Disrupter B-30 of the firm Branson Sonic Power Co., Danbury, Conn., USA) (2 minutes pulsating, corresponding to 1 minute of pure ultrasonic radiation. The cell fragments and non-macerated cells were centrifuged in a cooled centrifuge 30 minutes at 40,000 g and 5° C. The clear supernatant (=crude extract) was used in an enzyme test.
The reaction was started by adding crude extract and the reaction batches customarily incubated for 10 minutes at 30° C. The incubation time and the amount of crude extract were selected so that the linearity range of the enzymatic reaction and of the subsequent proline detection were not exceeded.
The enzymatic reaction was interrupted by pipetting 50 μl of the enzyme sample into 1.25 ml 100% acetic acid. Subsequently, 0.45 ml 0.1M tris-HCl buffer pH 7.0 and 1.25 ml ninhydrin reagent (3 g ninhydrin dissolved by heating in a mixture of 60 ml 100% acetic acid and 40 ml 6M phosphoric acid) were added. The ninhydrin reagent was freshly prepared daily. The test tubes were loosely closed with screw-on caps, incubated 30 minutes at 100° C. and subsequently cooled down in an ice bath.
The L-proline, liberated by the enzymatic hydrolysis, forms a red dye with ninhydrin at 100° C. The absorption of the red dye was measured in a spectrophotometer at 480 nm relative to a control batch without crude extract (=substrate blank). The concentration of the L-proline produced was determined using a straight calibration line with L-proline in a range of 5 to 100 nmoles per 50 μl specimen. The enzyme activity was indicated in international units; thus, one unit (U) corresponded to an amount of 1 μmole L-proline produced per minute.
The protein determination was carried out with a protein-determination kit of the firm Pierce Chemical Co., Rockford, Ill., USA, according to Bradford, Anal. Biochem. 72, pp. 248-254 (1976).
as §1, §2, §3, §4, §5, §6, §7

[3] = test system: N-acyl-L-proline acylase; assay: Substrate specificity: hydrolysis of N-acyl amino acids and proline derivatives; type: biochemical, Comamonas testosteroni DSM 5416; settings: for Rel. activity (%): 20 mM substrate 1.0 ml in 2.0 ml batch, 30° C., pH 7.0, N-acetyl-L-proline = 100%, amino-acid analyzer
Protocol: The activity of acylase was determined with various N-acetyl-L-amino acids and N-chloroacetyl-L-amino acids in a reaction batch with the following composition:
The reaction temperature was 30° C. and the incubation time 15 minutes to 24 hours. 0.2 ml samples of the reaction batch in each instance were mixed at different times with 0.2 ml 10% (w/v) trichloroacetic acid and the denatured protein centrifuged off for 10 minutes at 11,000 rpms in a table centrifuge. The supernatant was diluted with a 0.1M Na citrate buffer pH 2.2 with 25% (v/v) 2.2-thiodiethanol and 0.1% (v/v) phenol 1:5 and 1:50 respectively. The amino acids released were quantitatively detected by an amino-acid analyzer LC 5001 of the firm Biotronic, Maintal, Federal Republic of Germany. In Table 16, the substrates marked with * and the corresponding products were quantified by means of HPLC.
The activity of the acylase was determined with various proline derivatives as under a).

[4] = carbon source 4 g/l in culture medium
[5] = inductor 1 g/l + 4 g/l Na acetate, 24 hours

Compound	Growth (OD600) [1, 4]	further results
N[C@@H](Cc1c[nH]cn1)C(=O)O [Lhistidine]	No growth	
N[C@@H](CO)C(=O)O [Lserin]	No growth	
N[C@@H](Cc1c[nH]c2ccccc12)C(=O)O [Ltryptophane]	No growth	
O=C(O)CC(O)C(=O)O (stereo not drawn) [Malate]	3.4 OD600	Spec. activity (U/mg) [2, 4]: < 0.01 U/mg
CC(=O)N[C@@H](C)C(=O)O [N-acetyl-L-alanine]		Hydrolysis by the acylase (in words) [3]: hydrolyzes; also recorded: reacted at a distinctly lower speed; Rel. activity (%) [3]: 9.3%; Growth (OD600) [1, 5]: 2.28 OD600; Spec. activity (U/mg) [2, 5]: < 0.01 U/mg
CSCC[C@H](NC(=O)CCl)C(=O)O [N-chloroacetyl-L-methionine]		Hydrolysis by the acylase (in words) [3]: hydrolyzes; also recorded: reacted at a distinctly lower speed; Rel. activity (%) [3]: 17.1%; Growth (OD600) [1, 5]: 2.19 OD600; Spec. activity (U/mg) [2, 5]: < 0.01 U/mg
CC(C)[C@H](NC(=O)CCl)C(=O)O [N-chloroacetyl-L-valine]		Hydrolysis by the acylase (in words) [3]: hydrolyzes; also recorded: reacted at a distinctly lower speed; Rel. activity (%) [3]: 14.1%; Growth (OD600) [1, 5]: 2.50 OD600; Spec. activity (U/mg) [2, 5]: < 0.01 U/mg
CCC(=O)O [Propionate]	1.9 OD600	Spec. activity (U/mg) [2, 4]: < 0.01 U/mg
CC(=O)C(=O)O [Pyruvate]	2.4 OD600	Spec. activity (U/mg) [2, 4]: < 0.01 U/mg
O=C(O)CC(O)(CC(=O)O)C(=O)O [citrate]	No growth	
O=C(CO)[C@@H](O)[C@H](O)[C@H](O)CO [fructose]	No growth	
O=C[C@H](O)[C@@H](O)[C@H](O)[C@H](O)CO [glucose]	No growth	
OC[C@H]1O[C@@H](O[C@H]2[C@H](O)[C@@H](O)C(O)O[C@@H]2CO)[C@H](O)[C@@H](O)[C@H]1O (stereo partly drawn) [lactose]	No growth	
OC[C@H]1O[C@H](O[C@H]2[C@H](O)[C@@H](O)[C@H](O)O[C@@H]2CO)[C@H](O)[C@@H](O)[C@@H]1O [maltose]	No growth	
O=C[C@@H](O)[C@@H](O)[C@H](O)[C@H](O)CO [mannose]	No growth	
OC[C@H]1O[C@@](CO)(O[C@H]2O[C@H](CO)[C@@H](O)[C@H](O)[C@H]2O)[C@@H](O)[C@@H]1O [saccharose]	No growth	
O=C[C@H](O)[C@@H](O)[C@H](O)CO [xylose]	No growth	
phenylacetate	No growth	
